Source: US8946436B2, “Oxazolidinone compounds and their uses in preparation of antibiotics” (Sichuan Gooddoctor Pharmaceutical Group Co., Ltd., priority 2011, dated 2015)
In brackets after ≈: the same amount, converted by molar mass.

Assays:
[1] = tested on: S. pneumoniae; assay: In vitro antibacterial activity (MIC), S. pneumoniae; format: cell-based; conditions: Streptococcus pneumoniae; S. pneumoniae (10 strains); read-out: MIC
Experimental: (§1) The test strain was inoculated into the liquid medium and cultured at 37° C. for 16-18 h. The culture liquid and MH medium were put into two blank wells of a 96-well plate, respectively. Then, the absorptions thereof were measured by a Microplate reader. The difference between the absorption values of the culture liquid and MH medium is the adsorption of the bacteria. The concentration of the culture liquid can be calculated according to the formula of 1OD=50 million CFU/mL. The culture liquid was diluted with the MH bouillon culture medium to 5000 CFU/mL for further use.
(§2) Compounds 12a, 13 and 14 were dissolved in DMSO to 1 mg/mL, and then filtered with a 0.22 μm filter to obtain the compound solutions. And then they were gradually diluted to a desired concentration (10× final concentration) with the liquid medium, so as to obtain a series of dilutions. The final concentration grade of the dilutions of each tested compound consists of 14 concentrations, which includes: 0.03125 μg/mL, […], 0.125 μg/mL, 0.25 μg/mL, […], 1 μg/mL, 2 μg/mL, 4 μg/mL, 8 μg/mL, 16 μg/mL, 32 μg/mL, 64 μg/mL, 128 μg/mL and 256 μg/mL.
(§3) 10 μL of each of the compound dilutions above was added into a well of a 96-well plate. 90 μL of the culture liquid (5000 CFU/mL) was added into each of the wells, respectively, mixed with the dilutions to render the tested compound concentration to the final concentration. The resulted mixture was incubated at 37° C. for 16-18 h, and then the OD630 thereof was measured. A culture liquid free of the tested compounds is used as a blank control, and three parallel tests with the same concentration of each compound were performed. The minimum inhibitory concentration (MIC) of each compound on the standard strain of Staphylococcus Aureus and other test strains was determined. Specifically, among the culture liquid contained in the wells of the micro-plate, the first three lowest concentrations under which growth of the test strains could be observed were chose for further evaluation of the MIC. A culture liquid free of tested compounds was used as a blank control. Each of the culture liquids was homogenized independently, and then was diluted with a sterile saline. Each of the diluted culture liquids was plated onto a MH bouillon plate and incubated at 37° C. for 20 h in incubator. After the incubation, the number of the colonies on each plate was counted. As compared with the blank control group, the lowest concentration of each of the test compound groups, at which 80% reduction in the colony number of the strains was achieved, was recorded as the MIC.

[2] = tested on: S. aureus; assay: In vitro antibacterial activity (MIC), S. aureus; format: cell-based, Staphylococcus Aureus; conditions: Staphylococcus aureus; S. aureus (12 strains); read-out: MIC
Experimental: Strains: strain ATCC25923 is available from the American Type Culture Collection, and is used as a standard strain of Staphylococcus Aureus;
Liquid medium: MH bouillon culture medium, a product of BD Company, United States of American;
Tested Compounds: compounds 12a, 13 and 14 prepared according to the methods above, and Linezolid purchased from Pfizer.
as §1, §2, §3

[3] = tested on: S. agalactiae; assay: In vitro antibacterial activity (MIC), S. agalactiae; format: cell-based; conditions: Streptococcus agalactiae; S. agalactiae (5 strains); read-out: MIC
Experimental: as §1, §2, §3

[4] = tested on: L-02; assay: Cytotoxicity experiment (MTT), L-02; format: cell-based; conditions: Homo sapiens, L02, 48 h, L-02 normal cells, read-out: Inhibition ratio
Experimental: (§4) (1) Inoculating cells: Experimental cells in the growth of logarithmic phase were collected and suspended. The cell concentration of the suspension was adjusted so that they could be inoculated into the wells of 96-well micro plate at a density between 10^3-10^4 cells per well (200 μl per well). (2) Culturing cells: The cells were cultured at normal conditions for 3 days and then exposed to 50 uM compounds for test. (3) Coloring reaction: At 24 h, 48 h and 72 h after the cells being exposed to the compounds for test, 200 μl culture medium containing 20 μl MTT solution (5 mg/ml) was added into each well, and the well was further incubated at 37° C. for 2 hours to terminate the incubation. After the incubation, the supernatants were removed from the wells. In the event there were suspended cells in the wells, centrifugation should be performed before removal of supernatant from the wells. After the removal, 150 μl DMSO was added to each well and mixed thoroughly by agitation for 10 mins to fully dissolve crystals. (4) Ascertainment of colorimetry: The absorbance value at 490 nm of each well was determined by Enzyme-linked immunosorbent Monitor. The growth curve of the experimental cells was plotted by taking time as x-coordinate and absorbance value as y-coordinate. In addition, an inhibition ratio could be calculated in accordance with the following formula: Inhibition ratio=(absorbance value of control group-absorbance value of administering group)/absorbance value of control group×100%.

[5] = tested on: E. faecalis; assay: In vitro antibacterial activity (MIC), E. faecalis; format: cell-based; conditions: Enterococcus faecalis; E. faecalis (7 strains); read-out: MIC
Experimental: as §1, §2, §3

[6] = tested on: HEK-293; assay: Cytotoxicity experiment (MTT), HEK-293; format: cell-based; conditions: Homo sapiens, HEK293, 48 h, HEK-293 normal cells, read-out: Inhibition ratio
Experimental: as §4

MIC [1] [µg/mL]	MIC [2] [µg/mL]	MIC [3] [µg/mL]	MIC [5] [µg/mL]	melting point [°C]	Compound	cytotoxicity at 50 µM [4] [%]	cytotoxicity at 50 µM [6] [%]
0.5 to 8 (≈ 1.18 to 18.8 µM)	1 to 8 (≈ 2.36 to 18.8 µM)	0.5 to 8 (≈ 1.18 to 18.8 µM)	0.25 to 8 (≈ 0.589 to 18.8 µM)	226.1 to 227.8	COc1ccc(-c2cnn(-c3ccc(N4C[C@H](CNC(C)=O)OC4=O)cc3F)c2)cc1 [Compound 13c, (S)-N-((3-(3-fluoro-4-(4-(4-methoxyphenyl)-1H-pyrazol-1-yl)phenyl)-2-oxooxazolidin-5-yl)methyl) acetamide]	10.4	32
0.5 to 8 (≈ 1.14 to 18.2 µM)	1 to 8 (≈ 2.28 to 18.2 µM)	0.5 to 4 (≈ 1.14 to 9.1 µM)	1 to 8 (≈ 2.28 to 18.2 µM)	279.6 to 280.2	CC(=O)NC[C@H]1CN(c2ccc(-n3cc(-c4ccc(C(=O)O)cn4)cn3)c(F)c2)C(=O)O1 [Compound 13e, (S)-N-((3-(3-fluoro-4-(4-(5-carboxyl-pyridin-2-yl)-1H-pyrazol-1-yl)phenyl)-2-oxooxazolidin-5-yl)methyl) acetamide]	38	36.3
